Reference: patent US20130172342A1, “BENZIMIDAZOLE DERIVATIVES AS SELECTIVE BLOCKERS OF PERSISTENT SODIUM CURRENT” (Allergan, Inc., priority 2011, published 2013)

How the values were obtained:
Format in all cases: cell-based
[1] = test system: persistent sodium currents; assay: FLIPR sodium depletion/repletion assay (voltage-sensitive dyes); conditions: for IC50: 8-point concentration-response, antagonism of persistent current; for HTS % Block: single concentration HTS protocol, inhibition of the control response
Description: To identify compounds that block persistent sodium currents, they were tested in a sodium depletion/repletion assay in which changes in the fluorescence of voltage-sensitive dyes measured in a Fluorometric Imaging Plate Reader (FLIPR) were used to infer the effects of the compounds on persistent sodium currents. The compounds were first tested in a single concentration HTS protocol.

[2] = test system: transient sodium currents; assay: IonWorks automated patch clamp, whole-cell voltage clamp; conditions: inhibition of transient sodium currents, read-out: IW IC50
Description: To determine the selectivity of effects of these compounds on the persistent current, the inhibition of transient sodium currents using an automated patch clamp was also tested for the compounds. For direct measurement of Na+ currents the IonWorks automated patch clamp system was used. The IonWorks system is a high-throughput electrophysiological instrument that performs whole-cell voltage clamp recordings in a 384-well plate format.

[3] = test system: Nav1.3 or Nav1.6 channels; assay: gigohm-seal manual patch-clamp (MPC) in HEK cells stably transfected with sodium channels; conditions: for block of persistent versus transient sodium currents: FIG. 1, percentage of control current at steady state, n=3; for concentration effective in blocking 50% of the persistent current: HEK cells expressing Nav1.3 or Nav1.6, FIG. 1
Description: Nav1.3 or Nav1.6 channels were expressed in HEK cells, currents were measured using standard MPC electrophysiological techniques. Data are summarized from at least 3 experiments for each concentration tested and were normalized to the control currents before compound addition. Data are presented as the mean and standard error of the mean (n=3) of the percentage of the control current observed at steady state after compound addition.
Therefore, the efficacy and selectivity of the identified persistent current antagonists were verified using conventional gigohm-seal manual patch-clamp (MPC).
MPC experiments were conducted on human embroynic kidney (HEK) cells stably transfected with sodium channels were plated on coverslips. Cells were patch clamped using standard patch-clamp techniques (Hamill, O. P., A. Marty, et al., 1981 Pflugers Arch. 391:85-100). Once sufficient persistent current was established, buffer was introduced into the chamber at a constant flow rate of […] until the persistent current stabilized. Subsequent concentration-response experiments were conducted using this same flow rate. After application of the compound, current amplitude was monitored until equilibrium was established. The data recorded at equilibrium was normalized to the control current measured during perfusion with control buffer in the absence of a test compound. Adequate solution perfusion and gigohm seal stability were monitored throughout the experiment. The compound's antagonism of persistent or transient sodium currents is expressed as the IC5O of block for the respective current (see Table 1). Selectivity for block of the persistent current was calculated as the ratio of the IC5O for the transient current divided by the IC5O for the persistent current.
Direct measurement of the sodium current in cells expressing either Nav1.3 or
As shown for the exemplary compounds (compound #1 in Table 1 and Compound A shown below)

Row | Structure (SMILES) | IC50 [1] [µM] | HTS % Block [1] [%] | IC50 [2] [µM] | block of persistent versus transient sodium currents [3] | concentration effective in blocking 50% of the persistent current [3]
1 | COc1ccccc1OCCn1c(CN2CCCCC2)nc2ccccc21 | 0.347 | 94.8 | > 30 |  | 
2 | Cc1cccc(OCCn2c(CN3CCCCC3)nc3ccccc32)c1C | 0.452 | 78.9 | 13.8 |  | 
3 | COc1cccc(OCCn2c(CN3CCCCC3)nc3ccccc32)c1 | 0.521 | 96.5 | > 30 |  | 
4 | Cc1ccc(C)c(OCCn2c(CN3CCCCC3)nc3ccccc32)c1 | 0.559 | 88.9 | 22.8 |  | 
5 | Cc1ccc(OCCn2c(CN3CCCCC3)nc3ccccc32)cc1C | 0.589 | 80.1 | 23.4 |  | 
6 | Cc1ccc(OCCn2c(CN3CCCCC3)nc3ccccc32)cc1 | 0.751 | 94.6 | > 30 |  | 
7 | COc1ccccc1OCCCCn1c(CN2CCCCC2)nc2ccccc21 | 0.83 | 95.5 | > 30 |  | 
8 | COc1ccc(OCCn2c(C(C)N3CCCCC3)nc3ccccc32)cc1 (stereo not drawn) | 0.95 | 95.2 | > 30 |  | 
9 | Clc1ccc(OCCn2c(CN3CCCCC3)nc3ccccc32)cc1 | 1.46 | 80.7 | 27.8 |  | 
10 | Cc1ccccc1OCCn1c(CN2CCCCC2)nc2ccccc21 | 5.56 | 93.6 | > 30 |  | 
11 | CC(C)N(C(=O)Cn1c(CN2CCCCC2)nc2ccccc21)c1ccccc1 | 6.35 | 84.2 | > 30 |  | 
12 | CCn1c(C(C)N2CCCCC2)nc2ccccc21 (stereo not drawn) | 16.3 | 90.6 | > 30 |  | 
13 | C/C=C/c1ccc(OCCn2c(C(C)N3CCCCC3)nc3ccccc32)c(OC)c1 (stereo not drawn) | > 30 | 34.6 | > 30 |  | 
14 | Cc1cccc(C)c1OCCn1c(CN2CCOCC2)nc2ccccc21 | 0.729 | 95.2 | > 30 |  | 
15 | Cc1cccc(C)c1OCCCn1c(CN2CCOCC2)nc2ccccc21 | 0.852 | 98.9 | > 30 |  | 
16 | C=CCc1ccccc1OCCn1c(CN2CCOCC2)nc2ccccc21 | 1.14 | 91.5 | > 30 |  | 

Row | Structure (SMILES) | IC50 [1] [µM] | HTS % Block [1] [%] | IC50 [2] [µM] | block of persistent versus transient sodium currents [3] | concentration effective in blocking 50% of the persistent current [3]
17 | Cc1cc(C)cc(OCCn2c(CN3CCOCC3)nc3ccccc32)c1 | 1.47 | 92.6 | > 30 |  | 
18 | Cc1ccc(C)c(OCCn2c(CN3CCOCC3)nc3ccccc32)c1 | 2.3 | 92.7 | > 30 |  | 
19 | Cc1ccccc1OCCn1c(CN2CCOCC2)nc2ccccc21 | 3.24 | 92.7 | > 30 |  | 
20 | Cc1cccc(OCCn2c(CN3CCOCC3)nc3ccccc32)c1C | 3.53 | 97.3 | > 30 |  | 
21 | CCc1ccc(OCCn2c(CN3CCOCC3)nc3ccccc32)cc1 | 3.67 | 90.8 | 30 |  | 
22 | Cc1ccc(OCCn2c(CN3CCOCC3)nc3ccccc32)c(C)c1 | 4.52 | 79.3 | > 30 |  | 
23 | C=CCc1ccc(OCCn2c(CN3CCOCC3)nc3ccccc32)c(OC)c1 | 5.12 | 70.7 | ≥ 30 |  | 
24 | Cc1ccc(OCCn2c(CN3CCOCC3)nc3ccccc32)cc1 | 6.38 | 92.3 | > 30 |  | 
25 | c1ccc(OCCn2c(CN3CCOCC3)nc3ccccc32)cc1 | 7.79 | 99.2 | > 30 |  | 
26 | Cc1cccc(OCCn2c(CN3CCOCC3)nc3ccccc32)c1 | 7.85 | 86.5 | > 30 |  | 
27 | COc1ccc(OCCn2c(C(C)N3CCOCC3)nc3ccccc32)cc1 (stereo not drawn) | 9.81 | 92.9 | > 30 |  | 
28 | C/C=C/c1ccc(OCCn2c(CN3CCOCC3)nc3ccccc32)c(OC)c1 | 18.2 | 75.7 | > 30 |  | 
29 | COc1ccc(OCCn2c(CN3CCOCC3)nc3ccccc32)cc1 | > 30 | 57.7 | > 30 |  | 
30 | COc1ccccc1OCCn1c(CN2CCOCC2)nc2ccccc21 | > 30 | 70.1 | > 30 |  | 
31 | Cc1cccc(C)c1OCCn1c(CN2CCCCC2)nc2ccccc21 [Compound #1, 1-[2-(2,6-Dimethylphenoxy)ethyl]-2-piperidin-1-ylmethyl-1H-benzimidazole] | 0.066 |  | > 30 | effective in blocking persistent sodium currents at concentrations that did not affect transient currents | low to submicromolar
32 | Cc1ccc(C(C)C)c(OCCn2c(CN3CCOCC3)nc3ccccc32)c1 [Compound A] |  |  |  | effective in blocking persistent sodium currents at concentrations that did not affect transient currents | low to submicromolar
